Literature values in PMC9010276 (Clinical and Translational Science, 2021).
Where two headings read alike, the source gives them in different places.

Columns and labels:
[1] = studies with registered drugs

SMILES | Analgesic effects on experimental pain tests [1] | Skin rash after administration (nonselective Nav inhibitors) | Skin rash after administration (after multiple dosing at higher dose levels)
COC[C@@H](NC(C)=O)C(=O)NCc1ccccc1 [lacosamide] | limited and variable analgesic effects |  | 
Cc1cccc(C)c1OCC(C)N (stereo not drawn) [mexiletine] | limited and variable analgesic effects | mild skin rash | 
O=C1NC(=O)C(c2ccccc2)(c2ccccc2)N1 [phenytoin] |  | mild skin rash | 
Nc1[nH]ncc1-c1cc(Cl)ccc1Oc1cc(F)c(S(=O)(=O)Nc2cscn2)cc1Cl [PF‐05089771] |  |  | mild skin rash
CCN(CC)CC(=O)Nc1c(C)cccc1C [lidocaine] | limited and variable analgesic effects |  | 
